Results taken from patent US10766888B1, “HMOX1 inducers” (Mitobridge Inc., priority 2019, dated 2020).
Converted amounts (≈) assume the structure as drawn.

How the values were obtained:
[1] = tested on: Human Heme Oxygenase-1 (HMOX-1); assay: ELISA assay to measure human heme oxygenase-1 (HMOX-1) in HepG2 lysate; assay type: cell-based; details: for EC50: human HMOX1 protein level in HepG2 lysate, * = average of 2 or more EC50 determinations, NA = Not Active, read-out: EC50
Protocol: Example 143. ELISA Assay to Measure Human Heme Oxygenase-1 (HMOX-1) in HepG2 lysate
Reagents and Technical Notes:
ELISA capture antibody, standard HO-1, detection antibody and streptavidin HRP were supplied in the DuoSet IC Human total HO-1 ELISA from R&D systems (DYC3776-2). The substrate cocktail was KPL LumiGLO reserve Chemiluminescent Substrate (54-71-00). PBS was Corning Cellgro Cell Culture (21-040-CV). 10×PBS+0.05% tween20 (PBST) was from KPL.
All incubations of the plate were at room temperature (20° C.) in a closed drawer.
The ELISA plate was processed manually. All loadings were with a multichannel pipet. Plates were emptied by shaking into the sink and tapping onto paper towels to remove any remaining reagent. Plate washing was accomplished by loading all wells with PBS+0.05% tween20 (PBST) using a squirt bottle, shaking the PBST out and tapping the plate onto paper towels.
Preparation of the ELISA Plate:
• 1. anti-HO-1 capture antibody was 1440 μg/ml after reconstitution in PBS. This antibody was diluted to 8 μg/ml in PBS and 50 μl per well was added to a 384 well greiner “lumitrac 200” plate. Incubated overnight. • 2. The plate was emptied and 100 μl PBS+1% BSA added to all wells. Incubated 90 minutes at room temperature. Preparation of HepG2 Lysate: • 1. Cells were cultured in a 96-well tissue culture plate washed with PBS and then the plate frozen at −70° C. overnight. Plates were allowed to warm to ice temperature in an ice bucket. 20 μl of PBS, 0.5% Triton X100, 1 mM EDTA with 1×HALT™ protease inhibitors was added to each well and the plates incubated on ice for 1 hour. • 2. The lysates were frozen at −20° C. overnight. Measurement of HMOX1 (“HO-1”) • 1. In a polypropylene 384 well plate, human HO-1 (after reconstitution in PBS+0.5% Triton+1 mM EDTA) was serially diluted from 20 ng/ml 2-fold in PBS+0.5% triton-X100, 1 mM EDTA to make a 12-point standard curve including a zero point. • 2. In a polypropylene 96 well plate, HepG2 lysate was diluted 1 to 20 in Diluent #4 from DUOSET kit in which the assay standard is also diluted. • 3. The PBS+1% BSA was emptied from the ELISA plate and 30 μl of all samples and standards were added (duplicates recommended). The plate was incubated 90 minutes. • 4. Emptied plate and washed 4 times with PBST. • 5. Diluted HO-1 detection antibody to 200 ng/ml in PBS+1% BSA and added 30 μl to all wells. Incubated 90 minutes. • 6. Emptied plate and washed 4 times with PBST. • 7. Added 30 μl streptavidin HRP at 1/200 in PBS+1% BSA (stock streptavidin concentration not specified) to all wells. Incubated 30 minutes. • 8. Emptied plate and washed 4 times with PBST. • 9. Diluted Lumiglo reserve reagent two parts buffer to one part lumiglo substrate. Added 30 μl to all wells. Incubated 5 minutes. • 10. Measured chemiluminescence on spectramax M5 using 150 ms integration.
Table 1 below lists EC50 and fold changes of human HMOX1 protein levels relative to DMSO control upon treatment with representative compounds.

Kinetic solubility = assay type: physicochemical; details: Dulbecco's phosphate buffer saline (DPBS), aqueous buffer, kinetic from dmso stock, DPBS pH 7.4, 25° C., 200 μM test compound
Protocol: Example 144. Kinetic Solubility
10 μL of 10 mM DMSO stock solution were aliquotted to 490 μL of DMSO solution and separately 490 μL of Dulbecco's phosphate buffer saline, DPBS, pH 7.4 solution in 1.2 mL 96-well plates in duplicate. Final concentration was 200 μM of the test compound. Samples were incubated at 25° C. with shaking at 200 rpm for 16 h. Samples were centrifuged at 3500 rpm for 20 min at 25° C., and supernatant was submitted for HPLC analysis.
Kinetic solubility was measured using the following equation: […]

| SMILES | EC50 [1] [nM] | solubility at 16 h (Kinetic solubility) [µM] | Maximum Fold induction ([1]; fold change of human HMOX1 protein level relative to DMSO control, HepG2) [fold] |
| --- | --- | --- | --- |
| CC(=O)N1CCc2nc(Nc3nc4cc(C(=O)NCCOCCO)ccc4n3C)sc2C1 [Example 10, 2-((5-acetyl-4,5,6,7-tetrahydrothiazolo[5,4-c]pyridin-2-yl)amino)-N-(2-(2-hydroxyethoxy)ethyl)-1-methyl-1H-benzo[d]imidazole-5-carboxamide] | – | 8.6 (≈ 3.94 µg/mL) | – |
| Cn1c(Nc2nc3ccc(OC(F)(F)F)cc3o2)nc2cc(C(=O)Nc3cn[nH]c3)ccc21 [Example 46, 1-methyl-N-(1H-pyrazol-4-yl)-2-((6-(trifluoromethoxy)benzo[d]oxazol-2-yl)amino)-1H-benzo[d]imidazole-5-carboxamide] | 2200 | < 5 | – |
| CC(O)CNC(=O)c1ccc2c(c1)nc(Nc1nc3ccc(C(F)(F)F)cc3o1)n2C (stereo not drawn) [Example 35, N-(2-hydroxypropyl)-1-methyl-2-((6-(trifluoromethyl)benzo[d]oxazol-2-yl)amino)-1H-benzo[d]imidazole-5-carboxamide] | 1200 | < 2 | – |
| Cn1c(Nc2nc3ccc(C(F)(F)F)cc3o2)nc2cc(C(=O)NCCOCC(C)(C)O)ccc21 [Example 42, N-(2-(2-hydroxy-2-methylpropoxy)ethyl)-1-methyl-2-((6-(trifluoromethyl)benzo[d]oxazol-2-yl)amino)-1H-benzo[d]imidazole-5-carboxamide] | 2300 | 3.6 (≈ 1.77 µg/mL) | 29 |
| CN(C)CC(=O)NCCNC(=O)c1ccc2c(c1)nc(Nc1nc3ccc(OC(F)(F)F)cc3o1)n2C [Example 49, N-(2-(2-(dimethylamino)acetamido)ethyl)-1-methyl-2-((6-(trifluoromethoxy)benzo[d]oxazol-2-yl)amino)-1H-benzo[d]imidazole-5-carboxamide] | 800 | < 2 | – |
| CN(C)CC(=O)NCCNC(=O)c1ccc2c(c1)nc(Nc1nc3ccc(C(F)(F)F)cc3o1)n2C [Example 40, N-(2-(2-(dimethylamino)acetamido)ethyl)-1-methyl-2-((6-(trifluoromethyl)benzo[d]oxazol-2-yl)amino)-1H-benzo[d]imidazole-5-carboxamide] | 690 | 0.5 (≈ 0.252 µg/mL) | – |
| CC(O)COCCNC(=O)c1ccc2c(c1)nc(Nc1nc3ccc(C(F)(F)F)cc3o1)n2C (stereo not drawn) [Example 38, N-(2-(2-hydroxypropoxy)ethyl)-1-methyl-2-((6-(trifluoromethyl)benzo[d]oxazol-2-yl)amino)-1H-benzo[d]imidazole-5-carboxamide] | 1300 | < 2 | – |
| Cn1c(Nc2nc3ccc(OC(F)(F)F)cc3o2)nc2cc(C(=O)NC3COC3)ccc21 [Example 51, 1-methyl-N-(oxetan-3-yl)-2-((6-(trifluoromethoxy)benzo[d]oxazol-2-yl)amino)-1H-benzo[d]imidazole-5-carboxamide] | 1400 | < 2 | – |
| Cn1c(Nc2nc3ccccc3o2)nc2cc(C(=O)NCCOCC(C)(C)O)ccc21 [Example 27, 2-(benzo[d]oxazol-2-ylamino)-N-(2-(2-hydroxy-2-methylpropoxy)ethyl)-1-methyl-1H-benzo[d]imidazole-5-carboxamide] | – | 10.6 (≈ 4.49 µg/mL) | – |
| Cn1c(Nc2nc3ccccc3o2)nc2cc(C(=O)NCCOCC(=O)O)ccc21 [Example 29, 2-(2-(2-(benzo[d]oxazol-2-ylamino)-1-methyl-1H-benzo[d]imidazole-5-carboxamido)ethoxy)acetic acid] | – | 19.3 (≈ 7.9 µg/mL) | – |
| Cn1cc(NC(=O)c2ccc3c(c2)nc(Nc2nc4ccc(OC(F)(F)F)cc4o2)n3C)cn1 [Example 50, 1-methyl-N-(1-methyl-1H-pyrazol-4-yl)-2-((6-(trifluoromethoxy)benzo[d]oxazol-2-yl)amino)-1H-benzo[d]imidazole-5-carboxamide] | – | 4 (≈ 1.89 µg/mL) | – |
| Cn1c(Nc2nc3ccc(C(F)(F)F)cc3o2)nc2cc(C(=O)NCCN3CCCCC3)ccc21 [Example 37, 1-methyl-N-(2-(piperidin-1-yl)ethyl)-2-((6-(trifluoromethyl)benzo[d]oxazol-2-yl)amino)-1H-benzo[d]imidazole-5-carboxamide] | – | < 2 | – |
| Cn1c(Nc2nc3ccccc3o2)nc2cc(C(=O)NCC(O)CO)ccc21 (stereo not drawn) [Example 24, 2-(benzo[d]oxazol-2-ylamino)-N-(2,3-dihydroxypropyl)-1-methyl-1H-benzo[d]imidazole-5-carboxamide] | – | 12.4 (≈ 4.73 µg/mL) | – |

More lines, now with the values ahead:

| EC50 [1] [nM] | solubility at 16 h (Kinetic solubility) [µM] | Maximum Fold induction ([1]; fold change of human HMOX1 protein level relative to DMSO control, HepG2) [fold] | SMILES |
| --- | --- | --- | --- |
| 1500 | 3.1 (≈ 1.31 µg/mL) | – | COCCONC(=O)c1ccc2c(c1)nc(Nc1nc3ccc(C(C)=O)cc3o1)n2C [Example 132, 2-((6-acetylbenzo[d]oxazol-2-yl)amino)-N-(2-methoxyethoxy)-1-methyl-1H-benzo[d]imidazole-5-carboxamide] |
| 500 | 2.1 (≈ 0.948 µg/mL) | – | Cn1c(Nc2nc3ccc(OC(F)(F)F)cc3o2)nc2cc(C(=O)NOCCO)ccc21 [Example 126, N-(2-hydroxyethoxy)-1-methyl-2-((6-(trifluoromethoxy)benzo[d]oxazol-2-yl)amino)-1H-benzo[d]imidazole-5-carboxamide] |
| 1100 | 2.7 (≈ 1.12 µg/mL) | – | Cn1c(Nc2nc3ccccc3o2)nc2cc(C(=O)NCCOCCO)c(F)cc21 [Example 72, 2-(benzo[d]oxazol-2-ylamino)-6-fluoro-N-(2-(2-hydroxyethoxy)ethyl)-1-methyl-1H-benzo[d]imidazole-5-carboxamide] |
| 910 | < 5 | – | COCCNC(=O)c1ccc2c(c1)nc(Nc1nc3cc(F)ccc3o1)n2C [Example 67, 2-((5-fluorobenzo[d]oxazol-2-yl)amino)-N-(2-methoxyethyl)-1-methyl-1H-benzo[d]imidazole-5-carboxamide] |
| – | 12.2 (≈ 5.04 µg/mL) | – | Cn1c(Nc2nc3nccnc3s2)nc2cc(C(=O)NCCOCCO)ccc21 [Example 114, N-(2-(2-hydroxyethoxy)ethyl)-1-methyl-2-(thiazolo[4,5-b]pyrazin-2-ylamino)-1H-benzo[d]imidazole-5-carboxamide] |
| 1400 | < 2 | – | Cn1c(Nc2nc3ccc(-c4cscn4)cc3o2)nc2cc(C(=O)NCCOCCO)ccc21 [Example 134, N-(2-(2-hydroxyethoxy)ethyl)-1-methyl-2-((6-(thiazol-4-yl)benzo[d]oxazol-2-yl)amino)-1H-benzo[d]imidazole-5-carboxamide] |
| 1800 | 1.2 (≈ 0.556 µg/mL) | – | Cn1c(Nc2nc3cccc(C(F)(F)F)c3o2)nc2cc(C(=O)NCCOCCO)ccc21 [Example 117, N-(2-(2-hydroxyethoxy)ethyl)-1-methyl-2-((7-(trifluoromethyl)benzo[d]oxazol-2-yl)amino)-1H-benzo[d]imidazole-5-carboxamide] |
| 3600 | 9 (≈ 3.25 µg/mL) | – | Cn1c(Nc2nc3ccccc3o2)nc2cc(C(N)C(F)(F)F)ccc21 (stereo not drawn) [Example 141, N-(5-(1-amino-2,2,2-trifluoroethyl)-1-methyl-1H-benzo[d]imidazol-2-yl)benzo[d]oxazol-2-amine] |
| 2500 | 2.6 (≈ 1.01 µg/mL) | – | Cn1c(Nc2nc3ccc(Br)cc3o2)nc2cc(C(=O)O)ccc21 [Example 91, 2-((6-bromobenzo[d]oxazol-2-yl)amino)-1-methyl-1H-benzo[d]imidazole-5-carboxylic acid] |
| – | 9.1 (≈ 3.83 µg/mL) | – | Cn1c(Nc2nc3ccc(C(F)(F)F)nc3o2)nc2cc(C(=O)NCCO)ccc21 [Example 113, N-(2-hydroxyethyl)-1-methyl-2-((5-(trifluoromethyl)oxazolo[5,4-b]pyridin-2-yl)amino)-1H-benzo[d]imidazole-5-carboxamide] |
